For one data set, the system named is TFEB. The data set is described as follows: TFEB nuclear translocation in HeLa/TFEB cells. Format: cell-based, human. The procedure: Control (Coriell Institute, USA) and JNCL fibroblasts (Gaslini Institute, Italy) were grown in DMEM (1:1, HyClone) supplemented with 10% heat-inactivated fetal bovine serum (FBS, Atlanta Biologicals), 2 mM L-glutamine, 100 U/ml penicillin and […] streptomycin (Invitrogen). HeLa cells were incubated for 2 h with LY294002 ([…], Cell Signaling), Torin 1 (300 nM, Cayman Chemical) or for 24 h with trehalose (100 mM, Sigma), rapamycin (300 nM, Sigma), MK2206 (1 μM, Selleckchem), U0126 ([…], Tocris) and dialyzed serum (GE Healthcare Life Sciences) for 30 min. For immunofluorescence assay, cells were grown on coverslips in 24-well plates. After the treatment, cells were washed with PBS and fixed with methanol for 10 min. Cells were then blocked with blocking reagent (0.1% saponin, 10% bovine serum in PBS) for 1 h and incubated with appropriate primary antibody(s) (1:100) for 3 h at room temperature. After three washes with PBS, the cells were incubated with appropriate secondary antibodies (1:500) for 1 h at room temperature. Coverslips were then mounted with vectashield containing 4,6-diamidino-2-phenylindole (H-1200) for imaging via confocal microscopy. Cell pellets were resuspended in lysis buffer (10 mM Hepes pH 7.9, 10 mM KCl, 0.1 mM EDTA and 0.4% Nonidet P40) with inhibitors by pipetting and kept in ice for 30 min. After 1 min of spin at full speed, the supernatant was collected as cytosolic fraction. The pellet was washed twice with lysis buffer and resuspended with nuclear buffer (20 mM Hepes pH 7.9, 0.4M NaCl and 1 mM EDTA) containing phosphatases and proteases inhibitors. After 15 min of vigorous shaking on an Eppendorf shaker, the pellet was spun down at full speed for 10 min. The supernatant was used as the nuclear fraction.

The test system of the next data set is Cln3^Δex7-8 mice. In words: Life span assessment, oral trehalose. Format: in vivo, mouse. The procedure: Cln3^Δex7-8 mice (stock no. 004685; Cln3^tm1.1Mem/J; CD-1 background)^32 were obtained from the Jackson Laboratory. Control (CD-1) and Cln3^Δex7-8 mice were housed 3-4 per cage in a room with a 12-h light/12-h dark cycle. Food and water were provided ad libitum. All mice used in this study were analyzed at 8 and 12 months of age and were littermates produced by crossing heterozygous Cln3^Δex7-8 mice. Only males were used for this analysis. Investigators were blinded when analyzing the data, and no randomization was necessary. No data were excluded from this study.
Trehalose (Swanson) was dissolved in drinking water to a final concentration of 2% and changed twice a week. Trehalose-containing water was given to Cln3^Δex7-8 and WT mice by spontaneous oral administration starting at 21 days of age and continuing until the day the mice died naturally (life span assessment) or were sacrificed for other studies.

The next data set relates to CLEAR genes. The data set is described as follows: Real-time qPCR of CLEAR genes in control and JNCL fibroblasts. Format: cell-based, human. As to conditions: treated versus untreated. The procedure: Control (Coriell Institute, USA) and JNCL fibroblasts (Gaslini Institute, Italy) were grown in DMEM (1:1, HyClone) supplemented with 10% heat-inactivated fetal bovine serum (FBS, Atlanta Biologicals), 2 mM L-glutamine, 100 U/ml penicillin and […] streptomycin (Invitrogen). HeLa cells were incubated for 2 h with LY294002 ([…], Cell Signaling), Torin 1 (300 nM, Cayman Chemical) or for 24 h with trehalose (100 mM, Sigma), rapamycin (300 nM, Sigma), MK2206 (1 μM, Selleckchem), U0126 ([…], Tocris) and dialyzed serum (GE Healthcare Life Sciences) for 30 min.
Total RNA was extracted from the control and JNCL fibroblasts and from WT and Cln3^Δex7-8 cortical neuron cultures using the RNEasy kit (Qiagen) according to the manufacturer's instructions. Half of the mouse brain was processed for the RNA extraction and one microgram was used for complementary DNA synthesis by QuantiTect Reverse Transcription kit (Qiagen). The primers for PCR with reverse transcription reactions are listed in Table St Quantitative real-time PCR was performed by using iQ SYBR Green Supermix on the CFX96 Touch Real-Time Detection System (Bio-Rad Laboratories). […] Relative gene expression was determined using the ΔΔCT method, normalizing to GAPDH (for human genes) and cyclophilin (for mouse genes). […]
Background: Quantitative PCR measures a nucleic acid by following its amplification.

For data set [1] the following is noted: humans, oral; cited from earlier work.
For another data set, the system named is ERK. In words: ERK inhibition check. Format: cell-based. The procedure:
Brain tissue and cultured cells were collected and lysed in RIPA buffer (50 mM Tris-HCl, ph 7.4, 1% NP40, 0.5% Na-deoxycholate, 0.1% SDS, 150 mM NaCl, 2 mM EDTA and 50 mM NaF) including a cocktail of protease (Roche) and phosphatase (SIGMA) inhibitors. Protein concentrations were measured with the bicinchoninic acid protein assay kit (Pierce, Rockford, Ill.), using bovine serum albumin as standard. Lysates were separated via SDS-polyacrylamide gel electrophoresis (PAGE) and then transferred to nitrocellulose membranes. Blots were incubated in blocking buffer (5%, w/v, dried skimmed milk in Tris-buffered saline, pH 7.4 and 0.2% Tween 20, TBST) followed by overnight incubation with appropriate antibodies diluted in blocking buffer (5% dry milk). Western blot images were acquired by LAS 4000 (GE Healthcare) and quantified using ImageJ. Images have been cropped for presentation.

Turning to `Cl.NC1(c2ccc(-c3nc4ccn5c(=O)[nH]nc5c4cc3-c3ccccc3)cc2)CCC1` [MK2206, 8-[4-(1-aminocyclobutyl)phenyl]-9-phenyl-1,2,4-triazolo[3,4-f][1,6]naphthyridin-3(2H)-one], in the data set with TFEB (confocal microscopy and subcellular fractionation), the “TFEB nuclear translocation on kinase inhibitors” value is recorded as “nuclear translocation of TFEB”.
`OC[C@H]1O[C@H](O[C@H]2O[C@H](CO)[C@@H](O)[C@H](O)[C@H]2O)[C@H](O)[C@@H](O)[C@@H]1O` [trehalose, a-D-glucopyranosyl a-D-glucopyranoside] registered a median survival in the data set on Cln3^Δex7-8 mice (Cln3^Δex7-8 mice, 2% trehalose in drinking water from 21 days of age, untreated 454 days) of 522 days. Further, the maximum life span in the data set on Cln3^Δex7-8 mice (Cln3^Δex7-8 mice, oral trehalose, untreated 544 days) is given as 699 days. In addition, in the data set on Cln3^Δex7-8 mice (treated vs untreated Cln3^Δex7-8 mice), the “increase of maximum life span” value was found to be 28%. Further, the “increase of median survival” value with Cln3^Δex7-8 mice (treated vs untreated Cln3^Δex7-8 mice, log-rank P=0.00566) is 15%. Further, in the data set on TFEB (trehalose within 24 h, untreated 20%), the “cells with nuclear TFEB” value was above 80%. In addition, in the data set on CLEAR genes, the “expression of CLEAR genes” value is recorded as “increased expression of tested CLEAR genes”. For the same compound, the “ingested trehalose absorbed into the blood stream” value in data set [1] is on record as “Less than 0.5%”. The ERK inhibition entry with ERK is listed as “does not inhibit ERK”.
